Laboratory results as given in patent US9474790B2, “Stable, protracted GLP-1/glucagon receptor co-agonists for medical use” (Novo Nordisk A/S, priority 2013, dated 2016).
Numbered stars: 1 amine (or outer) side, 2 acyl side, 3 side chain; on linkers, the order of the positions; unused ones are H or OH. Square brackets hold non-standard residues; d marks the D form. Side chains are listed from the residue outwards. Peptide text beside a SMILES is read from it. * marks the point of attachment. C18 diacid = O=C(O)CCCCCCCCCCCCCCCCC(=O)*; γGlu = O=C(O)[C@H](CCC(=O)[*:2])N[*:1]; AEEA = NCCOCCOCC(=O)O; Aib = CC(C)(N)C(=O)O

Assay: Thioflavin T (ThT) fibrillation assay for physical stability
Assay type: physicochemical
Details: 250 μM in 10 mM HEPES buffer, pH 7.5, 37° C., shaking 960 rpm
Excerpt: The purpose of this assay was to assess the physical stability of the glucagon derivatives of the invention in aqueous solutions.
Low physical stability of a peptide may lead to amyloid fibril formation, which is observed as well-ordered, thread-like macromolecular structures in the sample, which eventually may lead to gel formation. This has traditionally been measured by visual inspection of the sample. However, that kind of measurement is very subjective and depending on the observer. Therefore, the application of a small molecule indicator probe is much more advantageous. Thioflavin T (ThT) is such a probe and has a distinct fluorescence signature when binding to fibrils [Naiki et al; Anal. Biochem. 1989 177 244-249; LeVine; Methods. Enzymol. 1999 309 274-284].
The time course for fibril formation can be described by a sigmoidal curve with the following expression [Nielsen et al; Biochemistry 2001 40 6036-6046]:
Here, as depicted in FIG. 1, F is the ThT fluorescence at the time t. The constant t0 is the time needed to reach 50% of maximum fluorescence. The two important parameters describing fibril formation are the lag-time calculated by t0−2τ and the apparent rate constant kapp 1/τ.
Samples were prepared freshly before each assay. Each sample composition is described in the legends. The pH of the sample was adjusted to the desired value using appropriate amounts of concentrated NaOH and HCl. Thioflavin T was added to the samples from a stock solution in H2O to a final concentration of 1 μM.
Sample aliquots of 200 μl (250 μM of the glucagon derivative/analogue in 10 mM HEPES buffer, pH 7.5) were placed in a 96 well microtiter plate (Packard OptiPlate™-96, white polystyrene). Usually, four or eight replica of each sample (corresponding to one test condition) were placed in one column of wells. The plate was sealed with Scotch Pad (Qiagen).
Incubation at given temperature, shaking and measurement of the ThT fluorescence emission were done in a Fluoroskan Ascent FL fluorescence plate reader (Thermo Labsystems). The temperature was set to 37° C. and the plate was incubated with orbital shaking adjusted to 960 rpm with an amplitude of 1 mm. Fluorescence measurement was done using excitation through a 444 nm filter and measurement of emission through a 485 nm filter.
Each run was initiated by incubating the plate at the assay temperature for 10 min. The plate was measured every 20 minutes for a desired period of time. Between each measurement, the plate was shaken and heated as described.
After completion of the ThT assay the four or eight replica of each sample was pooled and centrifuged at 20000 rpm for 30 minutes at 18° C. The supernatant was filtered through a 0.22 μm filter and an aliquot was transferred to a HPLC vial.
The concentration of peptide in the initial sample and in the filtered supernatant was determined by reverse phase HPLC using an appropriate standard as reference. The percentage fraction the concentration of the filtered sample constituted of the initial sample concentration was reported as the recovery.
The measurement points were saved in Microsoft Excel format for further processing and curve drawing and fitting was performed using GraphPad Prism. The background emission from ThT in the absence of fibrils was negligible. The data points were typically a mean of four or eight samples.
The data set may be fitted to Eq. (1).

THT assay Lag time (Ex. 76), 45 h:
CC(C)C[C@H](NC(=O)[C@H](Cc1ccc(O)cc1)NC(=O)[C@H](CCCCN)NC(=O)[C@H](CO)NC(=O)[C@H](CC(C)C)NC(=O)[C@H](CC(=O)O)NC(=O)[C@H](CO)NC(=O)[C@@H](NC(=O)[C@H](Cc1ccccc1)NC(=O)[C@@H](NC(=O)CNC(=O)[C@H](CCC(N)=O)NC(=O)C(C)(C)NC(=O)[C@@H](N)Cc1c[nH]cn1)[C@@H](C)O)[C@@H](C)O)C(=O)N[C@@H](CC(=O)O)C(=O)N[C@@H](CCCCNC(=O)CC[C@H](NC(=O)CC[C@H](NC(=O)COCCOCCNC(=O)COCCOCCNC(=O)CC[C@H](NC(=O)CCCCCCCCCCCCCCCCC(=O)O)C(=O)O)C(=O)O)C(=O)O)C(=O)N[C@@H](CCCCN)C(=O)N[C@@H](CCCNC(=N)N)C(=O)N[C@@H](C)C(=O)N[C@@H](CCC(N)=O)C(=O)N[C@@H](CCC(=O)O)C(=O)N[C@@H](Cc1ccccc1)C(=O)N[C@H](C(=O)N[C@@H](CCC(N)=O)C(=O)N[C@@H](Cc1c[nH]c2ccccc12)C(=O)N[C@@H](CC(C)C)C(=O)N[C@@H](CC(C)C)C(=O)N[C@@H](CC(N)=O)C(=O)N[C@H](C(N)=O)[C@@H](C)O)C(C)C [Example 7, N^ε16-[(4S)-4-carboxy-4-[[(4S)-4-carboxy-4-[[2-[2-[2-[[2-[2-[2-[[(4S)-4-carboxy-4-(17-carboxyheptadecanoylamino)butanoyl]amino]ethoxy]ethoxy]acetyl]amino]ethoxy]ethoxy]acetyl]amino]butanoyl]amino]butanoyl]-[Aib2,Leu10,Lys16,Lys17,Glu21,Leu27]-Glucagon amide] (H-H[Aib]QGTFTSDLSKYLDK([γGlu-γGlu-AEEA-AEEA-γGlu-C18 diacid])KRAQEFVQWLLNT-NH2; N-terminus assumed)
CC(C)C[C@H](NC(=O)[C@H](Cc1c[nH]c2ccccc12)NC(=O)[C@H](C)NC(=O)[C@@H](NC(=O)[C@H](Cc1ccccc1)NC(=O)[C@H](CCC(=O)O)NC(=O)[C@H](CCCNC(=N)N)NC(=O)[C@H](C)NC(=O)[C@H](C)NC(=O)[C@H](CCCNC(=N)N)NC(=O)[C@H](CCCCNC(=O)CC[C@H](NC(=O)CC[C@H](NC(=O)COCCOCCNC(=O)COCCOCCNC(=O)CC[C@H](NC(=O)CCCCCCCCCCCCCCCCC(=O)O)C(=O)O)C(=O)O)C(=O)O)NC(=O)[C@H](CC(=O)O)NC(=O)[C@H](CC(C)C)NC(=O)[C@H](Cc1ccc(O)cc1)NC(=O)[C@H](CCCCN)NC(=O)[C@H](CO)NC(=O)[C@H](CC(C)C)NC(=O)[C@H](CC(=O)O)NC(=O)[C@H](CO)NC(=O)[C@@H](NC(=O)[C@H](Cc1ccccc1)NC(=O)[C@@H](NC(=O)CNC(=O)[C@H](CCC(N)=O)NC(=O)C(C)(C)NC(=O)[C@@H](N)Cc1c[nH]cn1)[C@@H](C)O)[C@@H](C)O)C(C)C)C(=O)N[C@@H](CC(C)C)C(=O)N[C@@H](CC(N)=O)C(=O)N[C@H](C(N)=O)[C@@H](C)O [Example 18, N^ε29-[(4S)-4-carboxy-4-[[(4S)-4-carboxy-4-[[2-[2-[2-[[2-[2-[2-[[(4S)-4-carboxy-4-(17-carboxyheptadecanoylamino)butanoyl]amino]ethoxy]ethoxy]acetyl]amino]ethoxy]ethoxy]acetyl]amino]butanoyl]amino]butanoyl]-[Aib2,Leu10,Lys16,Ala18,Arg20,Glu21,Ala-24,Leu27]-Glucagon amide] (H-H[Aib]QGTFTSDLSKYLDK([γGlu-γGlu-AEEA-AEEA-γGlu-C18 diacid])RAAREFVAWLLNT-NH2; N-terminus assumed)
CC(C)C[C@H](NC(=O)[C@H](Cc1c[nH]c2ccccc12)NC(=O)[C@H](C)NC(=O)[C@@H](NC(=O)[C@H](Cc1ccccc1)NC(=O)[C@H](CCC(=O)O)NC(=O)[C@H](CCCNC(=N)N)NC(=O)[C@H](C)NC(=O)[C@H](CCCNC(=N)N)NC(=O)[C@H](CCCNC(=N)N)NC(=O)[C@H](CCCCNC(=O)CC[C@H](NC(=O)COCCOCCNC(=O)COCCOCCNC(=O)CC[C@H](NC(=O)CC[C@H](NC(=O)CCCCCCCCCCCCCCCCC(=O)O)C(=O)O)C(=O)O)C(=O)O)NC(=O)[C@H](CCC(=O)O)NC(=O)[C@H](CC(C)C)NC(=O)[C@H](Cc1ccc(O)cc1)NC(=O)[C@H](CCCCN)NC(=O)[C@H](CO)NC(=O)[C@H](CC(C)C)NC(=O)[C@H](CC(=O)O)NC(=O)[C@H](CO)NC(=O)[C@@H](NC(=O)[C@H](Cc1ccccc1)NC(=O)[C@@H](NC(=O)CNC(=O)[C@H](Cc1c[nH]cn1)NC(=O)C(C)(C)NC(=O)[C@@H](N)Cc1c[nH]cn1)[C@@H](C)O)[C@@H](C)O)C(C)C)C(=O)N[C@@H](CC(C)C)C(=O)N[C@@H](CO)C(=O)N[C@H](C(N)=O)[C@@H](C)O [Example 32, N^ε16-[(4S)-4-carboxy-4-[[2-[2-[2-[[2-[2-[2-[[(4S)-4-carboxy-4-[[(4S)-4-carboxy-4-(17-carboxyheptadecanoylamino)butanoyl]amino]butanoyl]amino]ethoxy]ethoxy]acetyl]amino]ethoxy]ethoxy]acetyl]amino]butanoyl]-[Aib2,His3,Leu10,Glu15,Lys16,Arg20,Glu21,Ala24, Leu27,Ser28]-Glucagon amide] (H-H[Aib]HGTFTSDLSKYLEK([γGlu-AEEA-AEEA-γGlu-γGlu-C18 diacid])RRAREFVAWLLST-NH2; N-terminus assumed)
